Laboratory results: patent publication US12415806B1, “Solid state forms” (AMGEN INC., priority 2019, dated 2025)

Key:
KRAS^G12C tumors [1] = settings: preclinical analyses, combination; cited from earlier work
tumors = settings: first dosing cohorts; cited from earlier work
KRAS^G12C tumors [2] = settings: alone as well as in combination with immune-checkpoint inhibitors; cited from earlier work
[3] = Hygroscopicity (moisture uptake versus relative humidity); format: physicochemical
Text: (§1) Within the pharmaceutical research and development field, the investigation of a suitable solid-state form represents a crucial step. Investigating a solid-state form comprises several decisions, mainly the investigation of an anhydrous, salt or co-crystal form and the investigation of a polymorph of the respective anhydrous, salt or co-crystal. During a lead optimization program, several properties of research compounds are optimized, typically leading to one or a few candidates that continue into exploratory development programs. Typically, in the assessment and optimization of physical chemical parameters during lead optimization, the main focus is on solubility. […] Beyond the optimization of solubility, further physical chemical parameters, such as (1) melting point, (2) thermal behavior, (3) hygroscopicity, (4) crystal habit, (5) polymorphic behavior or physical stability, (6) impurity profile, and (7) chemical stability of the anhydrous or salt form, must be borne in mind when investigating the salt. The melting point of a drug, either as a free base, acid or salt form, should be higher than a certain threshold to allow processing steps such as drying or tabletting. The assessment of thermal behavior, which is typically done by thermogravimetry (TGA) and differential scanning calorimetry (DSC), also includes solid-solid phase transitions. These may be either enantiotropic or monotropic and can be related to the conversion of one polymorph to another or one pseudo-polymorph to another pseudo-polymorph—e.g. a lower solvate or hydrate—or a true polymorph. Hygroscopicity plays a key role in the evaluation of solid-state forms, as this property is highly relevant for many process steps such as drying, storage, blending, granulation, to name but a few. Hygroscopicity can be investigated by dynamic vapor sorption (DVS). Basically, this technique yields information on the amount of moisture that is taken up by the compound at a certain relative humidity level. […]

[4] = Polymorph conversion upon heating or slurrying (thermodynamic stability of forms); format: physicochemical
Description: Solutions of the compounds of the disclosure were prepared by adding enough solids to a given solvent so that excess solids were present. All forms described below can be obtained from various solvents, including, but not limited, to the specific solvents described in the Examples. The mixture was then agitated in a sealed vial at either ambient or elevated temperature. After a given amount of time, the solids were isolated by vacuum or centrifuge filtration and analyzed.
The crystalline anhydrous Form II and III described herein below convert to crystalline anhydrous Form I upon heating or slurrying.
Crystalline anhydrous Form III melts at 180° C.

[5] = Solid state physical and chemical stability on storage (HPLC, XRPD, DSC, TGA); format: physicochemical; settings: 14 weeks at 25° C./60% RH, 40° C./75% RH, 40° C./ambient RH, and 60° C./ambient RH
[6] = Excipient compatibility study in 3 prototype blends; format: physicochemical; settings: 3 prototype blends stored for 4 weeks at 40° C./75% RH
Description: (§2) Furthermore, crystalline anhydrous Form I was stable in an excipient compatibility study in 3 prototype blends that were stored for 4 weeks at 40° C./75% RH. Crystalline anhydrous Form I was also stable to ultraviolet and visible light in the solid state.

[7] = Stability to ultraviolet and visible light in the solid state; format: physicochemical
Description: as §2

Solubility assessment = format: physicochemical
Text: as §1, with “transitions.” for “transitions. These may be either enantiotropic or monotropic and can be related to the conversion of one polymorph to another or one pseudo-polymorph to another pseudo-polymorph—e.g. a lower solvate or hydrate—or a true polymorph. Hygroscopicity plays a key role in the evaluation of solid-state forms, as this property is highly relevant for many process steps such as drying, storage, blending, granulation, to name but a few. Hygroscopicity can be investigated by dynamic vapor sorption (DVS). Basically, this technique yields information on the amount of moisture that is taken up by the compound at a certain relative humidity level.”

C=CC(=O)N1CCN(c2nc(=O)n(-c3c(C)ccnc3C(C)C)c3nc(-c4c(O)cccc4F)c(F)cc23)[C@@H](C)C1 [Compound 1, 6-fluoro-7-(2-fluoro-6-hydroxyphenyl)-1-(4-methyl-2-(2-propanyl)-3-pyridinyl)-4-((2S)-2-methyl-4-(2-propenoyl)-1-piperazinyl)pyrido[2,3-d]pyrimidin-2 (1H)-one]
effect on anti-tumor efficacy of chemotherapy and targeted agents (KRAS^G12C tumors [1]): improved the anti-tumor efficacy of chemotherapy and targeted agents | anti-tumor activity in clinical trials (tumors): demonstrated anti-tumor activity | tumor outcome in immune-competent mice (KRAS^G12C tumors [2]): produced durable cures

C=CC(=O)N1CCN(c2nc(=O)n(-c3c(C)ccnc3C(C)C)c3nc(-c4c(O)cccc4F)c(F)cc23)[C@@H](C)C1 [Form III, 6-fluoro-7-(2-fluoro-6-hydroxyphenyl)-1-(4-methyl-2-(2-propanyl)-3-pyridinyl)-4-((2S)-2-methyl-4-(2-propenoyl)-1-piperazinyl)pyrido[2,3-d]pyrimidin-2 (1H)-one]
moisture absorbed ([3]; between 0-95% RH at 25° C.): 7.0 % wt | form conversion ([4]; upon melting and recrystallization at 220° C.): converts to crystalline anhydrous Form I

C=CC(=O)N1CCN(c2nc(=O)n(-c3c(C)ccnc3C(C)C)c3nc(-c4c(O)cccc4F)c(F)cc23)[C@@H](C)C1 [Form I, 6-fluoro-7-(2-fluoro-6-hydroxyphenyl)-1-(4-methyl-2-(2-propanyl)-3-pyridinyl)-4-((2S)-2-methyl-4-(2-propenoyl)-1-piperazinyl)pyrido[2,3-d]pyrimidin-2 (1H)-one]
moisture absorbed ([3]; between 0 and 90% RH at 25° C.): 0.5-1.0 % wt | physical and chemical stability in the solid state (no degradation peaks by HPLC, no changes in XRPD, DSC, TGA) [5]: physically and chemically stable | stability in excipient compatibility study [6]: stable | stability to ultraviolet and visible light [7]: stable | thermodynamic stability among polymorphs identified in the screening process ([4]; polymorph and salt screen): most thermodynamically stable polymorph

C=CC(=O)N1CCN(c2nc(=O)n(-c3c(C)ccnc3C(C)C)c3nc(-c4c(O)cccc4F)c(F)cc23)[C@@H](C)C1 (atropisomer, axis not shown) [Compound 1, 6-fluoro-7-(2-fluoro-6-hydroxyphenyl)-1-(4-methyl-2-(2-propanyl)-3-pyridinyl)-4-((2S)-2-methyl-4-(2-propenoyl)-1-piperazinyl)pyrido[2,3-d]pyrimidin-2 (1H)-one]
solubility (Solubility assessment): good solubility features

C=CC(=O)N1CCN(c2nc(=O)n(-c3c(C)ccnc3C(C)C)c3nc(-c4c(O)cccc4F)c(F)cc23)[C@@H](C)C1 [Form II, 6-fluoro-7-(2-fluoro-6-hydroxyphenyl)-1-(4-methyl-2-(2-propanyl)-3-pyridinyl)-4-((2S)-2-methyl-4-(2-propenoyl)-1-piperazinyl)pyrido[2,3-d]pyrimidin-2 (1H)-one]
moisture absorbed ([3]; between 0 and 90% RH at 25° C.): 2-2.5 % wt | form conversion ([4]; slurrying in water at 90° C. for 1 hour): converts to crystalline anhydrous Form I | form conversion ([4]; upon heating and recrystallization at 193° C.): converts to crystalline anhydrous Form I
